Assay results taken from article PMC5613062 (Investigational New Drugs, 2017).
Entries after “also recorded” stand apart in the source; their conditions may differ. Where two headings read alike, the source gives them in different places.

What was measured:
panel of other kinases = tested on: panel of other kinases; design: method as in earlier work; conditions: ref IB; cited from earlier work
[1] = Phase I safety/tolerability, DLT and MTD: selumetinib + erlotinib 100 mg orally QD in patients with advanced solid tumors
[2] = design: method as in earlier work; conditions: dog; ref IB; cited from earlier work
CYP 2C8 = tested on: CYP 2C8; design: method as in earlier work; conditions: at concentrations up to 50uM; ref IB; cited from earlier work
[3] = tested on: Calu-6 human non-small cell lung cancer xenograft; design: method as in earlier work; conditions: AZD6244 3 mg/kg BD; AZD2171 […] QD; ref IB; cited from earlier work
CYP2C9 = tested on: CYP2C9; design: method as in earlier work; conditions: weak direct inhibitor; ref IB; cited from earlier work
[4] = ref Study ARRY-0401, cited from earlier work
expressed CYP isoforms = tested on: expressed CYP isoforms; design: method as in earlier work; conditions: ref IB; listed as AZD6244; cited from earlier work
[5] = tested on: Lovo colorectal cancer xenograft; design: method as in earlier work; conditions: ref IB, cited from earlier work
[6] = design: method as in earlier work; conditions: either formulation of AZD6244; ref IB; cited from earlier work
[7] = design: method as in earlier work; conditions: mouse, rat and monkey; dosed as free-base or Hyd-Sulfate; ref IB; cited from earlier work
[8] = cited from earlier work
[9] = design: method as in earlier work; conditions: rat; ref IB; cited from earlier work
CYP 3A4 = tested on: CYP 3A4; design: method as in earlier work; conditions: at concentrations up to 50uM; ref IB; cited from earlier work
[10] = tested on: HCT-116 human colorectal cancer xenograft; design: method as in earlier work; conditions: AZD6244 25 m/kg BD; docetaxel 15 mg/kg once weekly; ref IB; cited from earlier work
[11] = tested on: breast cancer resistance protein (BCRP); design: method as in earlier work; conditions: ref IB; cited from earlier work
[12] = tested on: cytochrome P450 (CYP)3A, 1A and 2C; design: method as in earlier work; conditions: human hepatocytes, preliminary in vitro data; ref IB; cited from earlier work
[13] = design: method as in earlier work; conditions: mice, at dose levels that do not induce maternal toxicity, preliminary; ref IB; cited from earlier work
CYP 2C19 = tested on: CYP 2C19; design: method as in earlier work; conditions: at concentrations up to 50uM; ref IB; cited from earlier work
3T3 = tested on: 3T3; design: method as in earlier work; conditions: 3T3 Neutral Red Uptake phototoxicity test; ref IB; cited from earlier work
[14] = design: method as in earlier work; conditions: Minipig; ref IB; cited from earlier work
[15] = design: method as in earlier work; conditions: human; ref IB; cited from earlier work
[16] = design: method as in earlier work; conditions: AZD6244-related material, rat and mouse; ref IB; cited from earlier work
[17] = Pharmacokinetics alone and in combination, selumetinib + temsirolimus arm; format: in vivo, human; conditions: human, plasma, iv, geometric mean (% CV); for AUC(0-t): read-out: AUC(0–8); for AUC(0–12): read-out: AUC(0–12); for Cmax: read-out: Cmax
Method: (§1) PK parameters were derived using non-compartmental analysis. Cmax and tmax were determined by visual inspection of the plasma concentration-time profiles. AUC(0–12) was calculated by the linear trapezoidal rule. Where more than one maximum occurred, the reported value was assigned to the first occurrence.

[18] = design: method as in earlier work; conditions: monkey; ref IB; cited from earlier work
[19] = Pharmacokinetics alone and in combination, selumetinib + erlotinib arm
Method: as §1

p-glycoprotein (PgP) = tested on: p-glycoprotein (PgP); design: method as in earlier work; conditions: ref IB; cited from earlier work
[20] = dosed alone, selumetinib 50 mg cohort (N = 25), temsirolimus 25 mg IV
[21] = dosed alone, selumetinib 75 mg cohort (N = 6), temsirolimus 25 mg IV
[22] = dosed in combination, selumetinib 50 mg BID (N = 22) + temsirolimus 25 mg IV
[23] = dosed in combination, selumetinib 75 mg BID (N = 5) + temsirolimus 25 mg IV

SMILES: Cn1cnc2c(F)c(Nc3ccc(Br)cc3Cl)c(C(=O)NOCCO)cc21 [Selumetinib]
- activity against a panel of other kinases (panel of other kinases): inactive, or only minimally active
- protocol-defined MTD of selumetinib plus erlotinib (part A) ([1]; part A dose escalation, later not tolerated in part B): 50 mg BID
- selumetinib dose recommended for future phase II studies ([1]; plus erlotinib 100 mg QD): 100 mg QD
- MTD of selumetinib in combination with erlotinib ([1]; with erlotinib 100 mg QD): 100 mg QD
- Protein binding [2]: 94.6%
- inhibition of CYP2C8 (CYP 2C8): no inhibition
- Tumor growth inhibition as a % of control [3]: 48.8 % of control
- IC50 (CYP2C9): 44.7 µM
- time at which Cmax attained (median) ([4]; post-dose): approximately 1 hour
- half-life (t½), median ([4]; terminal elimination phase): approximately 11 hours
- CYP isoforms metabolizing AZD6244 (expressed CYP isoforms): metabolized by CYP1A2; also recorded: also metabolized by CYP 2C19 and CYP 3A4
- Tumor growth inhibition as a % of control ([5]; AZD6244 25 mg/kg BD, Iressa 75 mg/kg QD): 40.2 % of control
- Tumor growth inhibition as a % of control ([5]; rapamycin experiment, usual monotherapy schedules, doses not given): 39 % of control
- QTc prolongation [6]: no signal for QTc prolongation
- accumulation on multiple dosing [7]: no/minimal accumulation
- maximum tolerated dose (MTD), monotherapy ([8]; first-in-human trial of selumetinib monotherapy): 75 mg BID
- recommended phase II monotherapy dose ([8]; in vivo): 75 mg BID
- Protein binding [9]: 99.7%
- inhibition of CYP3A4 (CYP 3A4): no inhibition
- Tumor growth inhibition as a % of control [10]: 64.9 % of control
- interaction with breast cancer resistance protein (BCRP) [11]: substrate but not an inhibitor
- induction of cytochrome P450 (CYP)3A, 1A and 2C [12]: weak inducer
- reproductive toxicology [13]: adverse effects on embryofetal development and survival
- inhibition of CYP2C19 (CYP 2C19): no inhibition
- cytotoxicity in the presence of UV light (3T3): enhanced
- Protein binding [14]: 93.7%
- Protein binding [15]: 98.4%
- binding to melanin [16]: no evidence of binding to melanin
- penetration into the CNS [16]: minimal
- AUC(0-t) [17, 20]: 1840 ng·h/mL
- AUC(0–12) [17, 20]: 2150 ng·h/mL
- Cmax [17, 20]: 666 ng/mL
- AUC(0-t) [17, 21]: 2990 ng·h/mL
- AUC(0–12) [17, 21]: 3370 ng·h/mL
- Cmax [17, 21]: 1240 ng/mL
- AUC(0-t) [17, 22]: 1840 ng·h/mL
- AUC(0–12) [17, 22]: 2130 ng·h/mL
- Cmax [17, 22]: 676 ng/mL
- AUC(0-t) [17, 23]: 2520 ng·h/mL
- AUC(0–12) [17, 23]: 2940 ng·h/mL
- Cmax [17, 23]: 887 ng/mL
- Protein binding [18]: 97.7%
- Cmax ([19]; geometric mean (% CV), dosed alone, selumetinib 50 mg cohort (N = 14), erlotinib 100 mg QD): 926.5 (69.10) ng/mL
- Cmax ([19]; geometric mean (% CV), dosed in combination, selumetinib 50 mg BID (N = 12) + erlotinib 100 mg QD): 1334 (51.16) ng/mL
- Cmax ([19]; geometric mean, QD cohorts, in combination, selumetinib 50 mg (N = 6) + erlotinib 100 mg QD): 942 ng/mL
- tmax ([19]; human, plasma, oral): 1.25 h
- AUC(0-t) ([19]; human, plasma, oral, 100 mg, AUC(0–8), geometric mean, QD cohorts, dosed alone, selumetinib 100 mg cohort (N = 6), erlotinib 100 mg QD): 4400 ng·h/mL
- AUC(0-t) ([19]; human, plasma, oral, 100 mg, AUC(0–12), geometric mean, QD cohorts, dosed alone, selumetinib 100 mg cohort (N = 6), erlotinib 100 mg QD): 5000 ng·h/mL
- Cmax ([19]; human, plasma, oral, 100 mg, Cmax, geometric mean, QD cohorts, dosed alone, selumetinib 100 mg cohort (N = 6), erlotinib 100 mg QD): 1800 ng/mL
- AUC(0-t) ([19]; human, plasma, oral, AUC(0–8), geometric mean (% CV), dosed alone, selumetinib 50 mg cohort (N = 14), erlotinib 100 mg QD): 2280 ng·h/mL
- AUC(0-t) ([19]; human, plasma, oral, AUC(0–8), geometric mean (% CV), dosed alone, selumetinib 75 mg cohort (N = 6), erlotinib 100 mg QD): 2860 ng·h/mL
- AUC(0-t) ([19]; human, plasma, oral, AUC(0–8), geometric mean (% CV), dosed in combination, selumetinib 50 mg BID (N = 12) + erlotinib 100 mg QD): 3640 ng·h/mL
- AUC(0-t) ([19]; human, plasma, oral, AUC(0–8), geometric mean (% CV), dosed in combination, selumetinib 75 mg BID (N = 6) + erlotinib 100 mg QD): 4350 ng·h/mL
- AUC(0-t) ([19]; human, plasma, oral, AUC(0–8), geometric mean, QD cohorts, dosed alone, selumetinib 50 mg cohort (N = 7), erlotinib 100 mg QD): 1900 ng·h/mL
- AUC(0-t) ([19]; human, plasma, oral, AUC(0–8), geometric mean, QD cohorts, dosed alone, selumetinib 150 mg cohort (N = 13), erlotinib 100 mg QD): 6780 ng·h/mL
- AUC(0-t) ([19]; human, plasma, oral, AUC(0–8), geometric mean, QD cohorts, in combination, selumetinib 50 mg (N = 6) + erlotinib 100 mg QD): 2600 ng·h/mL
- AUC(0-t) ([19]; human, plasma, oral, AUC(0–8), geometric mean, QD cohorts, in combination, selumetinib 100 mg (N = 6) + erlotinib 100 mg QD): 7070 ng·h/mL
- AUC(0-t) ([19]; human, plasma, oral, AUC(0–8), geometric mean, QD cohorts, in combination, selumetinib 150 mg (N = 12) + erlotinib 100 mg QD): 9190 ng·h/mL
- AUC(0-t) ([19]; human, plasma, oral, AUC(0–12), geometric mean (% CV), dosed alone, selumetinib 50 mg cohort (N = 14), erlotinib 100 mg QD): 2700 ng·h/mL
- AUC(0-t) ([19]; human, plasma, oral, AUC(0–12), geometric mean (% CV), dosed alone, selumetinib 75 mg cohort (N = 6), erlotinib 100 mg QD): 3200 ng·h/mL
- AUC(0-t) ([19]; human, plasma, oral, AUC(0–12), geometric mean (% CV), dosed in combination, selumetinib 50 mg BID (N = 12) + erlotinib 100 mg QD): 4010 ng·h/mL
- AUC(0-t) ([19]; human, plasma, oral, AUC(0–12), geometric mean (% CV), dosed in combination, selumetinib 75 mg BID (N = 6) + erlotinib 100 mg QD): 4830 ng·h/mL
- AUC(0-t) ([19]; human, plasma, oral, AUC(0–12), geometric mean, QD cohorts, dosed alone, selumetinib 50 mg cohort (N = 7), erlotinib 100 mg QD): 2130 ng·h/mL
- AUC(0-t) ([19]; human, plasma, oral, AUC(0–12), geometric mean, QD cohorts, dosed alone, selumetinib 150 mg cohort (N = 13), erlotinib 100 mg QD): 7740 ng·h/mL
- AUC(0-t) ([19]; human, plasma, oral, AUC(0–12), geometric mean, QD cohorts, in combination, selumetinib 100 mg (N = 6) + erlotinib 100 mg QD): 7760 ng·h/mL
- AUC(0-t) ([19]; human, plasma, oral, AUC(0–12), geometric mean, QD cohorts, in combination, selumetinib 150 mg (N = 12) + erlotinib 100 mg QD): 10500 ng·h/mL
- Cmax ([19]; human, plasma, oral, Cmax, geometric mean (% CV), dosed alone, selumetinib 75 mg cohort (N = 6), erlotinib 100 mg QD): 1050 ng/mL
- Cmax ([19]; human, plasma, oral, Cmax, geometric mean (% CV), dosed in combination, selumetinib 75 mg BID (N = 6) + erlotinib 100 mg QD): 1660 ng/mL
- Cmax ([19]; human, plasma, oral, Cmax, geometric mean, QD cohorts, dosed alone, selumetinib 50 mg cohort (N = 7), erlotinib 100 mg QD): 683 ng/mL
- Cmax ([19]; human, plasma, oral, Cmax, geometric mean, QD cohorts, dosed alone, selumetinib 150 mg cohort (N = 13), erlotinib 100 mg QD): 2450 ng/mL
- Cmax ([19]; human, plasma, oral, Cmax, geometric mean, QD cohorts, in combination, selumetinib 100 mg (N = 6) + erlotinib 100 mg QD): 2600 ng/mL
- Cmax ([19]; human, plasma, oral, Cmax, geometric mean, QD cohorts, in combination, selumetinib 150 mg (N = 12) + erlotinib 100 mg QD): 2810 ng/mL
- interaction with p-glycoprotein (PgP) (p-glycoprotein (PgP)): substrate but not an inhibitor
